According to patent US8158621B2, “Methods of treating or preventing autoimmune diseases with 2,4-pyrimidinediamine compounds” (Rigel Pharmaceuticals, Inc., priority 2002, dated 2012):

Tested on: Human Jurkat T-cells (clone N)
Assay: Jurkat T-cell activation (anti-TCR, CD69 upregulation)
Assay type: cell-based
Details: not given
Procedure, shortened: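 Readout is CD69 upregulation by flow cytometry (anti-CD69-APC, 20 min at 4 °C) after 20 h anti-TCR (C305, 500 ng/ml) stimulation at 37 °C.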

SMILES | IC50
Fc1cnc(Nc2ccc(N3CCOCC3)cc2)nc1Nc1ccc(N2CCOCC2)cc1 [Compound R926114] | 9.91 µM
CCOC(=O)c1cnc(N[C@H](C(=O)OCC)C(C)C)nc1N[C@H](C(=O)OCC)C(C)C [Compound R926527] | 21.2 µM
COc1cc(-c2ccccc2)c(C)cc1Nc1ncc(C)c(Nc2cc(C)c(-c3ccccc3)cc2OC)n1 [Compound R935003] | > 10 µM
N#CCOc1ccc(Nc2nc(Nc3ccc4c(c3)OCCO4)ncc2F)cc1 [Compound R945172] | 3.13 µM
CNC(=O)COc1cccc(Nc2nc(Nc3cccc(C(C)(C)C)c3)ncc2F)c1 [Compound R940267] | > 10 µM
OCCOc1cccc(Nc2ncc(CO)c(Nc3cccc(O)c3)n2)c1 [Compound R926735] | 5.98 µM
O=C(COc1cccc(Nc2ncc(F)c(Nc3ccc4c(c3)OCCO4)n2)c1)NCC(O)CO (centres unmarked) [Compound R926782] | 1.22 µM
O=C(O)COc1ccc(Nc2ncc(F)c(Nc3cccc(O)c3)n2)cc1 [Compound R926564] | > 10 µM
CNC(=O)COc1cccc(Nc2ncc(F)c(Nc3ccc4c(c3)C(=NOC)CCO4)n2)c1 [Compound R950356] | 5.73 µM
COc1cc(C(=O)NS(=O)(=O)c2ccccc2C)ccc1Cn1ncc2ccc(Nc3ncc(F)c(Nc4ccc(OC(C)C)cc4)n3)cc21 [Compound R935322] | > 10 µM
CNC(=O)C(C)(C)Oc1cccc(Nc2ncc(F)c(Nc3cccc(O)c3)n2)c1 [Compound R926913] | 5.65 µM
CNC(=O)COc1cccc(Nc2ncc(F)c(Nc3ccc4c(c3)C(=NO)CCO4)n2)c1 [Compound R950348] | 0.224 µM
CNC(=O)COc1cccc(Nc2ncc(F)c(Nc3ccc4c(c3)OCC(=O)N4)n2)c1 [Compound R908700] | 13.7 µM
O=C(COc1cccc(Nc2ncc(F)c(Nc3ccc4c(c3)OCCO4)n2)c1)N1CCNCC1 [Compound R926503] | 2.6 µM
COC(=O)COc1cc(O)cc(Nc2ncc(F)c(Nc3cccc(O)c3)n2)c1 [Compound R926927] | 5.53 µM
CNC(=O)COc1cccc(Nc2ncc(F)c(Nc3ccc4c(c3)OCC(=O)N4C)n2)c1 [Compound R909261] | 2.94 µM
COC(=O)c1cc2cc(Nc3nc(Nc4ccc(OCc5nc(-c6ccccc6)no5)cc4)ncc3F)ccc2o1 [Compound R935137] | 24.1 µM
CN(CCO)C(=O)c1cc2cc(Nc3ncc(F)c(Nc4cccc(O)c4)n3)ccc2o1 [Compound R926725] | 3.37 µM
CNC(=O)COc1ccc(Nc2ncc(F)c(Nc3ccc4c(c3)OCCCO4)n2)cc1 [Compound R935184] | 4.08 µM
COCOc1ccc(Nc2nc(Nc3cccc(O)c3)ncc2F)c(F)c1 [Compound R926680] | 5.7 µM

SMILES | IC50
CCOC1CCOc2ccc(Nc3nc(Nc4cccc(OCC(=O)NC)c4)ncc3F)cc21 (centres unmarked) [Compound R950296] | 1.95 µM
Cn1cc2cc(Nc3ncc(F)c(Nc4cccc(O)c4)n3)ccc2n1 [Compound R935299] | 0.824 µM
CNC(=O)COc1cccc(Nc2ncc(F)c(Nc3ccc(F)c(C)c3)n2)c1 [Compound R926923] | 7.2 µM
Nc1ccc(Nc2ncc(F)c(Nc3ccc(N)cc3)n2)cc1 [Compound R950121] | 6.27 µM
Cc1cc(Nc2nc(Nc3cccc(OCCN4CCNCC4)c3)ncc2F)cc(Cl)c1O [Compound R945150] | 1.11 µM
Fc1cnc(Nc2ccc3cn[nH]c3c2)nc1Nc1ccc(OC(F)(F)F)c(Cl)c1 [Compound R935368] | > 10 µM
CCOC(=O)COc1cccc(Nc2ncc(F)c(Nc3cc(Cl)c(O)c(Cl)c3)n2)c1 [Compound R950185] | > 10 µM
Nc1cccc(Nc2nc(Nc3cccc(Nc4ncc(F)c(Nc5cccc(N)c5)n4)c3)ncc2F)c1 [Compound R950137] | 5.9 µM
Cc1nc(COc2cccc(Nc3nc(Nc4ccc5c(c4)OCCO5)ncc3F)c2)no1 [Compound R945137] | 5.43 µM
O=C(CNc1cccc(Nc2ncc(F)c(Nc3ccc4c(c3)OCCO4)n2)c1)N1CCOCC1 [Compound R950193] | 2.83 µM
CC(=O)N(C(C)=O)c1cccc(N(C(C)=O)c2ncc(F)c(N(C(C)=O)c3cccc(N(C(C)=O)C(C)=O)c3)n2)c1 [Compound R950247] | > 10 µM
O=C(O)COc1cccc(Nc2ncc(F)c(Nc3ccc(O)c(C(=O)O)c3)n2)c1 [Compound R950291] | > 10 µM
CCOC(=O)C(C)(C)c1ccc(Nc2ncc(F)c(Nc3cccc(O)c3)n2)cc1 [Compound R935152] | 19.9 µM
O=C(COc1cccc(Nc2ncc(F)c(Nc3ccc4c(c3)C(=O)OC4)n2)c1)NCC(O)CO (centres unmarked) [Compound R940293] | > 10 µM
CNC(=O)COc1cccc(Nc2nc(Nc3ccc4c(c3)OCCO4)ncc2F)c1 [Compound R926776] | 12.5 µM
COC(=O)c1cc(Nc2nc(Nc3ccc4c(c3)OCCO4)ncc2F)cn1C [Compound R935166] | > 10 µM
CON=C(N)COc1ccc(Nc2ncc(F)c(Nc3ccc(OCC(N)=NOC)cc3)n2)cc1 [Compound R945096] | 2.8 µM
CC(C)(C)c1cccc(Nc2nc(Nc3cccc(OCC(=O)NC(CO)CO)c3)ncc2F)c1 [Compound R940296] | 1.23 µM
O=C(O)c1cnc(Nc2cccc(O)c2)nc1NC(C(=O)O)c1ccccc1 (centres unmarked) [Compound R926535] | > 10 µM
CNC(=O)COc1cc(Nc2ncc(F)c(Nc3cccc(O)c3)n2)cc(OCC(=O)NC)c1 [Compound R926930] | 10.5 µM

SMILES | IC50
CNC(=O)COc1cc(Nc2ncc(F)c(Nc3ccc(C)c(O)c3)n2)ccc1C [Compound R926759] | 1.71 µM
CNC(=O)Cn1ncc2ccc(Nc3ncc(F)c(Nc4ccc5cnn(CC(=O)NC)c5c4)n3)cc21 [Compound R935206] | > 10 µM
CNC(=O)c1cc(COc2cccc(Nc3ncc(F)c(Nc4ccc5c(c4)OCCO5)n3)c2)co1 [Compound R935213] | 3.09 µM
COC(=O)Cn1ncc2ccc(Nc3nc(Nc4ccc5c(c4)OCCO5)ncc3F)cc21 [Compound R935219] | 5.57 µM
O=C(COc1cccc(Nc2ncc(F)c(Nc3ccc4c(c3)OCCO4)n2)c1)N1CCNCC1 [Compound R926504] | 1.78 µM
COC(=O)COc1cccc(Nc2ncc(F)c(Nc3ccc4[nH]ncc4c3)n2)c1 [Compound R935269] | 7.58 µM
CNC(=O)COc1cc(Nc2ncc(F)c(Nc3ccc(C)c(OCC(=O)NC)c3)n2)ccc1C [Compound R926760] | 10.2 µM
CC1Sc2ccc(Nc3ncc(F)c(Nc4cccc(O)c4)n3)cc2NC1=O (racemic) [Compound R909263] | 6.2 µM
CNC(=O)CCn1ncc2cc(Nc3ncc(F)c(Nc4ccc5c(c4)OCCO5)n3)ccc21 [Compound R935309] | 0.779 µM
COc1cc(Nc2ncc(F)c(Nc3ccc4c(cnn4C)c3)n2)cc(OC)c1 [Compound R935214] | 1.38 µM
Cc1noc(COc2cccc(Nc3nc(Nc4cccc(O)c4)ncc3F)c2)n1 [Compound R945130] | > 10 µM
CNC(=O)COc1cccc(Nc2ncc(F)c(Nc3cccc(CN)c3)n2)c1 [Compound R940309] | > 10 µM
CC(C)(CO)c1ccc(Nc2nc(Nc3ccc4c(c3)OCCO4)ncc2F)cc1 [Compound R935149] | > 10 µM
O=C(COc1cccc(Nc2ncc(F)c(Nc3cccc(O)c3)n2)c1)NCCO [Compound R926506] | 2.68 µM
CC(C)(CO)NC(=O)COc1cccc(Nc2ncc(F)c(Nc3ccc4c(c3)OCCO4)n2)c1 [Compound R926764] | 2.17 µM
CCOC(=O)COc1cccc(Nc2nc(Nc3cc(OC)cc(OC)c3)ncc2F)c1 [Compound R926804] | > 10 µM
Cn1nnnc1COc1ccc(Nc2nccc(Nc3cccc(O)c3)n2)cc1 [Compound R920917] | 2.65 µM
CC(O)CNC(=O)COc1cccc(Nc2ncc(F)c(Nc3ccc4c(c3)NCCO4)n2)c1 (centres unmarked) [Compound R909251] | 0.664 µM
O=C(COc1cccc(Nc2ncc(F)c(Nc3ccc4c(c3)OCCO4)n2)c1)NCCOC(=O)CCCCC1SCC2NC(=O)NC21 (centres unmarked) [Compound R926811] | 1.28 µM
CCOC(=O)COc1cccc(Nc2nc(Nc3cccc(O)c3)ncc2F)c1 [Compound R926775] | > 10 µM

Same assay, conditions: Homo sapiens, Jurkat

SMILES | IC50
CC(C)(C)c1cccc(Nc2ncc(F)c(Nc3cccc(O)c3)n2)c1 [Compound R940257] | > 10 µM
Fc1cnc(Nc2ccc(Cl)c(C(F)(F)F)c2)nc1Nc1ccc(Cl)c(C(F)(F)F)c1 [Compound R926039] | > 10 µM
CC(C)c1ccc(O)cc1Nc1ncc(F)c(Nc2cc(O)ccc2C(C)C)n1 [Compound R935077] | > 10 µM
Oc1cccc(Nc2nc(Nc3ccc4cc[nH]c4c3)ncc2F)c1 [Compound R926751] | 5.59 µM
COc1ccc(Nc2ncc(F)c(Nc3ccc4c(c3)OCCO4)n2)c(C)c1 [Compound R926845] | > 10 µM
c1ccc(-c2cnc(Nc3ccc4c(c3)OCCO4)nc2Nc2ccc3c(c2)OCCO3)cc1 [Compound R925784] | > 10 µM
COc1ccc(Nc2nc(Nc3cccc(O)c3)ncc2F)cc1Cl [Compound R926945] | 4.24 µM
Fc1cnc(Nc2ccc3c(c2)OCCO3)nc1Nc1ccc(N2CCN(Cc3ccccc3)CC2)cc1 [Compound R945155] | 7.07 µM
Oc1c(Cl)cc(Nc2ncc(F)c(Nc3cc(Cl)c(O)c(Cl)c3)n2)cc1Cl [Compound R940215] | > 10 µM
Brc1cnc(Nc2ccc3c(c2)OCCO3)nc1Nc1ccc2c(c1)OCCO2 [Compound R925771] | 7.19 µM
COC(=O)c1cccc(Nc2ncc(F)c(Nc3cccc(C(=O)OC)c3)n2)c1 [Compound R945035] | > 10 µM
Nc1cc(Nc2ccnc(Nc3cc(N)cc(C(F)(F)F)c3)n2)cc(C(F)(F)F)c1 [Compound R950143] | 4.57 µM
N#Cc1cccc(Nc2ncc(F)c(Nc3cccc(C#N)c3)n2)c1 [Compound R945051] | > 10 µM
OCCNc1ncc(F)c(Nc2ccc3c(c2)OCCO3)n1 [Compound R925746] | > 10 µM
COc1ccc(Nc2nc(Nc3cccc(O)c3)ncc2F)c(OC)n1 [Compound R926887] | 5.92 µM
COc1cc(Nc2ncc(F)c(Nc3cccc(O)c3)n2)cc(OC)c1OC [Compound R926761] | 0.694 µM
Cc1onc(-c2ccccc2)c1Nc1ncc(F)c(Nc2ccc3c(c2)OCCO3)n1 [Compound R926743] | > 10 µM
